Our source for the IC50 and Ki values is ChEMBL document CHEMBL1909046, “DrugMatrix in vitro pharmacology data”.

The target in assay [1] is T1, Alpha-1B adrenergic receptor (Rattus norvegicus, UniProt P15823).
T1 sequence (P15823 whole entry): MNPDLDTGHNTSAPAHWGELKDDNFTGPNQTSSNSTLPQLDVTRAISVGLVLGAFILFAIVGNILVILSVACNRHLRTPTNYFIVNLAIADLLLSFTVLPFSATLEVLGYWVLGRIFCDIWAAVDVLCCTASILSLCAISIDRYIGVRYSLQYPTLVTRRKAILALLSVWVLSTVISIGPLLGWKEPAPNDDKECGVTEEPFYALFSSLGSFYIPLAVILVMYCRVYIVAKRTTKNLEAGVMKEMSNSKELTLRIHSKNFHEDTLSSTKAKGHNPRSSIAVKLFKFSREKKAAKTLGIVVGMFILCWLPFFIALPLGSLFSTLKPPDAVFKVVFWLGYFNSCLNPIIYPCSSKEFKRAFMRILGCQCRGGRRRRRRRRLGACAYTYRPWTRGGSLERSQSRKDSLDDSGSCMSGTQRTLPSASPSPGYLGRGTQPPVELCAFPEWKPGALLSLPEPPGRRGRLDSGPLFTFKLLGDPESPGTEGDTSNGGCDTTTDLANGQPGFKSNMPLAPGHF
The assay can be described thus: DRUGMATRIX: Alpha-1B adrenergic receptor radioligand binding (ligand: prazosin). The assay is classed as cell membranes, Wistar, Liver, Membrane. The conditions noted are these: Not Active = under 50% inhibition at 10 µM.

Another assay has as its target T2, Endothelin-1 receptor (Homo sapiens, UniProt P25101). Further: in other assays of this panel Not Active means under 50% inhibition at 10 µM.
T2 sequence (P25101 whole entry): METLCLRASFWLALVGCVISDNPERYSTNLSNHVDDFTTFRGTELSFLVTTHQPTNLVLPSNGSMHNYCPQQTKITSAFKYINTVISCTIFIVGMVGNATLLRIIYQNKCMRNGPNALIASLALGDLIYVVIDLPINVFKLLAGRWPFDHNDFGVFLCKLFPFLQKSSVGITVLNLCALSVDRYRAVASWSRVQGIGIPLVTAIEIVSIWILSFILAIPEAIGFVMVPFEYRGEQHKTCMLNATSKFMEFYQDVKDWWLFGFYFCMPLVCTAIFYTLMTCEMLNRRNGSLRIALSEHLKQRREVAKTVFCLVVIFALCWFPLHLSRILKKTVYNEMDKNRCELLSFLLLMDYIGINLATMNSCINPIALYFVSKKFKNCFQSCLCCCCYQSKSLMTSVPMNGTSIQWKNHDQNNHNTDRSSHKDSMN
The assay is classed as cell membranes, CHO-K1, Membrane. The following applies: cho-k1.

A short description of assay [2]: DRUGMATRIX: Glutamate, NMDA, Agonism radioligand binding (ligand: [3H] CGP-39653). Type of assay: cell membranes, Rattus norvegicus, Wistar, Cerebral cortex, Membrane. The following applies: Not Active = under 50% inhibition at 10 µM.
The target of another assay is Mu-type opioid receptor (Homo sapiens, UniProt P35372). The assay can be described thus: DRUGMATRIX: Opiate mu (OP3, MOP) radioligand binding (ligand: [3H] Diprenorphine). The assay is classed as cell membranes, CHO-K1, Membrane. The conditions noted are these: cho-k1; Not Active = under 50% inhibition at 10 µM.
Sequence of Mu-type opioid receptor (P35372 whole entry): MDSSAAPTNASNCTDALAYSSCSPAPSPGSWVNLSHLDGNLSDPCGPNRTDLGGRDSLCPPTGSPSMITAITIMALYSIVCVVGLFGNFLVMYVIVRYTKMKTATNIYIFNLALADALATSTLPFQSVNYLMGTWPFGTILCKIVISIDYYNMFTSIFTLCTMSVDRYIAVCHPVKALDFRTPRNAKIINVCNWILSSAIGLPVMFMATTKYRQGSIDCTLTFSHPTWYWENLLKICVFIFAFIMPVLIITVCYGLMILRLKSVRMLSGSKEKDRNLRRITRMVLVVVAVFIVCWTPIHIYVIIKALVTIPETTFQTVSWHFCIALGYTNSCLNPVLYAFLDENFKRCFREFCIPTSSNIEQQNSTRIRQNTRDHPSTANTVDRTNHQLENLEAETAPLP
The next assay addresses T3, Neutrophil elastase (Homo sapiens, UniProt P08246).
T3 sequence (P08246 whole entry): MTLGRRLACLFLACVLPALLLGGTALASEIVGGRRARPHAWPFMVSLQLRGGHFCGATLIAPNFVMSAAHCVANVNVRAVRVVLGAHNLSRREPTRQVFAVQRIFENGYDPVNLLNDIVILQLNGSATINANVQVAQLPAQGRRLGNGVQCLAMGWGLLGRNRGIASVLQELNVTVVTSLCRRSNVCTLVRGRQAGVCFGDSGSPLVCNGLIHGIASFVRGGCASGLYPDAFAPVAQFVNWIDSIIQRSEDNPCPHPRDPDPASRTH
Type of assay: tissue-based.

For assay [3], the target named is Tyrosine-protein kinase Lck (Homo sapiens, UniProt P06239). The assay can be described thus: DRUGMATRIX: Protein Tyrosine Kinase, LCK enzyme inhibition (substrate: Poly(Glu:Tyr)). The assay is classed as cell-based, Insect cells. The conditions noted are these: insect cells, Not Active = under 50% inhibition at 10 µM.
Sequence of Tyrosine-protein kinase Lck (P06239 whole entry): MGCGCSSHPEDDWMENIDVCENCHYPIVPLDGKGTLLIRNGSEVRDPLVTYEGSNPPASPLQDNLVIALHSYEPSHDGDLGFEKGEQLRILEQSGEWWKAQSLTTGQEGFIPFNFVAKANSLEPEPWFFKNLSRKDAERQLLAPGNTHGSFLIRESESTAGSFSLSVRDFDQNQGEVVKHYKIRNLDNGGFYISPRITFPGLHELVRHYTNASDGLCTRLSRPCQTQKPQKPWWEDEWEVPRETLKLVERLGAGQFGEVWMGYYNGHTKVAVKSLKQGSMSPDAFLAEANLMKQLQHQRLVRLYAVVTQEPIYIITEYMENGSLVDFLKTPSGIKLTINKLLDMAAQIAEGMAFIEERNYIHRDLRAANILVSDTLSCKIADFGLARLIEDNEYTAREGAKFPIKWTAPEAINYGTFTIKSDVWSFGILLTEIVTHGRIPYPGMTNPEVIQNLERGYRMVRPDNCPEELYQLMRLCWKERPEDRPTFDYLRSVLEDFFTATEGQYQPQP
In the next assay the target is T4, Estrogen receptor (Homo sapiens, UniProt P03372). Further: in other assays of this panel Not Active means under 50% inhibition at 10 µM.
T4 sequence (P03372 whole entry): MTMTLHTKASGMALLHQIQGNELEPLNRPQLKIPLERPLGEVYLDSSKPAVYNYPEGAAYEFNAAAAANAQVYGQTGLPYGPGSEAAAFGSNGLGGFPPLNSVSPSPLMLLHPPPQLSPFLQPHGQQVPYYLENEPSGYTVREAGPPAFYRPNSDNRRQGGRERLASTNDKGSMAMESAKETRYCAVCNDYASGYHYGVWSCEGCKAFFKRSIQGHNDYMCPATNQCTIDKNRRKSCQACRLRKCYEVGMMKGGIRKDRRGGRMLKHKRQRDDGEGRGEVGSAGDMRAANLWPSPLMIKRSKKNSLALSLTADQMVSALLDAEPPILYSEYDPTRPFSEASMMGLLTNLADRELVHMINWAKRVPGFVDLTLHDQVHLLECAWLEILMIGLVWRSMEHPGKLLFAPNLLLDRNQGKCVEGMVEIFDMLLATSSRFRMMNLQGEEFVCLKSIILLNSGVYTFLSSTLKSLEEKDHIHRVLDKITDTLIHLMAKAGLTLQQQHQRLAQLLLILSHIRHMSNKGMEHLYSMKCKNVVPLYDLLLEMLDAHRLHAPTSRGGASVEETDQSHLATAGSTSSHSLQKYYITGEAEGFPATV
The conditions noted are these: sf9.

The term IC50 denotes the concentration needed to halve the response being measured. As for `Nn1nnc2ccccc21`, the IC50 result (in assay [1]; on Endothelin-1 receptor; in assay [2]; on Mu-type opioid receptor; at Neutrophil elastase; in assay [3]) was “Not Active” each time. Also, the IC50 result against Estrogen receptor is recorded as “Not Active”. Moreover, in assay [2], the Ki entry is recorded as “Not Active”.
As for `CCOC(=O)[C@H](CCc1ccccc1)N[C@@H](C)C(=O)N1Cc2ccccc2C[C@H]1C(=O)O`, the IC50 result (in assay [1]; against Endothelin-1 receptor; in assay [2]; on Mu-type opioid receptor; against Neutrophil elastase; in assay [3]) was “Not Active” in each case. The IC50 result against Estrogen receptor is reported as “Not Active”. In addition, the Ki entry in assay [2] is reported as “Not Active”.
For the molecule `O=C(c1ccccc1Cl)N1CCC(Cc2ccccc2)CC1`, the IC50 result (in assay [1]; at Endothelin-1 receptor; in assay [2]; at Mu-type opioid receptor; at Neutrophil elastase; in assay [3]) was “Not Active” throughout. For the same molecule, on Estrogen receptor, the IC50 result is given as “Not Active”. Besides, the Ki entry in assay [2] was “Not Active”.
As for `Clc1cc2c(cc1Cl)Oc1cc(Cl)c(Cl)cc1O2` [2,3,7,8-TETRACHLORODIBENZO-P-DIOXIN], the IC50 result (in assay [1]; against Endothelin-1 receptor; in assay [2]; on Neutrophil elastase; in assay [3]; against Estrogen receptor) was “Not Active” in each case. Also, the Ki result in assay [2] was “Not Active”.
On to `CCCCCC[C@H]1C(=O)O[C@H](C)[C@H](NC(=O)c2cccc(NC=O)c2O)C(=O)O[C@@H](C)[C@@H]1OC(=O)CC(C)C` [ANTIMYCIN A], for which the IC50 result (in assay [1]; against Endothelin-1 receptor; in assay [2]; at Mu-type opioid receptor; against Neutrophil elastase; in assay [3]) was “Not Active” throughout. The IC50 entry at Estrogen receptor was “Not Active”. Further, in assay [2], the Ki entry is listed as “Not Active”.
In the case of `CO[C@H]1[C@@H](O)[C@H](N)[C@@H](O[C@H]2O[C@H]([C@H](C)N)CC[C@H]2N)[C@H](O)[C@@H]1N(C)C(=O)CN` [ASTROMICIN], the IC50 result (in assay [1]; against Endothelin-1 receptor; in assay [2]; on Mu-type opioid receptor; against Neutrophil elastase; in assay [3]) was “Not Active” in each case. For the same molecule, on Estrogen receptor, the IC50 result was “Not Active”. The Ki result in assay [2] is “Not Active”.
Turning to `CC[C@H]1OC(=O)[C@H](C)[C@@H](O[C@H]2C[C@@](C)(OC)[C@@H](O)[C@H](C)O2)[C@H](C)[C@@H](O[C@@H]2O[C@H](C)C[C@H](N(C)C)[C@H]2O)[C@](C)(O)C[C@@H](C)CN(C)[C@H](C)[C@@H](O)[C@]1(C)O` [AZITHROMYCIN], the IC50 entry (in assay [1]; on Endothelin-1 receptor; in assay [2]; on Mu-type opioid receptor; against Neutrophil elastase; in assay [3]) was “Not Active” each time. Besides, at Estrogen receptor, the IC50 entry is “Not Active”. The Ki result in assay [2] is “Not Active”.
Turning to `CC(C)(C)c1ccc(S(=O)(=O)/C=C/C#N)cc1` [BAY-11-7085], the IC50 result (in assay [1]; on Endothelin-1 receptor; in assay [2]; on Mu-type opioid receptor; at Neutrophil elastase; in assay [3]) was “Not Active” in each case. At Estrogen receptor, the IC50 entry is listed as “Not Active”. The Ki entry in assay [2] is “Not Active”.
As for `N=C(N)N/N=C/c1c(Cl)cccc1Cl` [GUANABENZ], the IC50 entry (against Endothelin-1 receptor; in assay [2]; on Mu-type opioid receptor; against Neutrophil elastase; in assay [3]; at Estrogen receptor) was “Not Active” throughout. The Ki result in assay [2] is reported as “Not Active”.
Take `Cc1cccc(Nc2ccccc2C(=O)O)c1C` [MEFENAMIC ACID]: the IC50 entry (in assay [1]; at Endothelin-1 receptor; in assay [2]; on Mu-type opioid receptor; on Neutrophil elastase; in assay [3]) was “Not Active” in each case. Further, the Ki result in assay [2] is on record as “Not Active”.
Turning to `COc1ccc2cc(CCC(C)=O)ccc2c1` [NABUMETONE], the IC50 entry (in assay [1]; at Endothelin-1 receptor; in assay [2]; on Mu-type opioid receptor; at Neutrophil elastase; in assay [3]) was “Not Active” throughout. In addition, the Ki result in assay [2] is “Not Active”.
As for `O=C(O)c1cccnc1` [NIACIN], the IC50 entry (in assay [1]; against Endothelin-1 receptor; in assay [2]; on Mu-type opioid receptor; at Neutrophil elastase; in assay [3]) was “Not Active” in each case. Further, the Ki entry in assay [2] is on record as “Not Active”.
On to `CNC(=C[N+](=O)[O-])NCCSCc1csc(CN(C)C)n1` [NIZATIDINE], for which the IC50 result (in assay [1]; on Endothelin-1 receptor; in assay [2]; on Mu-type opioid receptor; against Neutrophil elastase; in assay [3]) was “Not Active” each time. Also, the Ki entry in assay [2] is on record as “Not Active”.
In the case of `CC(C)(Sc1cc(C(C)(C)C)c(O)c(C(C)(C)C)c1)Sc1cc(C(C)(C)C)c(O)c(C(C)(C)C)c1` [PROBUCOL], the IC50 entry (in assay [1]; at Endothelin-1 receptor; in assay [2]; at Mu-type opioid receptor; on Neutrophil elastase; in assay [3]) was “Not Active” throughout. In assay [2], the Ki entry is “Not Active”.
With COBALT(II) ACETYLACETONATE, the IC50 result (in assay [1]; against Endothelin-1 receptor; in assay [2]; against Neutrophil elastase; in assay [3]; against Estrogen receptor) was “Not Active” in each case. The Ki result (in assay [1]; on Endothelin-1 receptor; in assay [2]; on Neutrophil elastase; in assay [3]; at Estrogen receptor) was “Not Active” in each case.
Turning to INSULIN HUMAN, the IC50 entry in assay [1] is “Not Active”; on Endothelin-1 receptor, “Not Active”; in assay [2], “Not Active”; against Neutrophil elastase it was “Not Active”; in assay [3] (read-out: IC50), 18.1 µM; on Estrogen receptor it was “Not Active”. The Ki result (in assay [1]; on Endothelin-1 receptor; in assay [2]; at Neutrophil elastase; at Estrogen receptor) was “Not Active” in each case.
As to POLYVINYL ALCOHOL, the IC50 result (in assay [1]; at Endothelin-1 receptor; in assay [2]; at Neutrophil elastase; in assay [3]; against Estrogen receptor) was “Not Active” in each case. Also, the Ki result (in assay [1]; on Endothelin-1 receptor; in assay [2]; at Neutrophil elastase; in assay [3]; on Estrogen receptor) was “Not Active” throughout.
